The compounds below were run on Dirofilaria immitis L1 larvae (assay: Screening against microfilaria (L1 larvae) of Dirofilaria immitis, survival/motility). Conditions: 72 h, read-out: Ranked D. immitis L1 MED Activity.
Assay type: in vivo
Protocol: Example 44. Screening of Compounds Against Microfilaria of Dirofilaria immitis
To evaluate the efficacy of compounds of the disclosure against Dirofilaria immitis, L1 stage larvae were exposed to various concentrations of the compounds to determine survival or paralysis of the larvae. Results are reported as the minimum effective dose (MED), defined as the concentration required to eliminate motility.
To perform the assay, microfilaria of Dirofilaria immitis were added to the wells of a microtiter plate containing buffer and the test compounds in DMSO. Microfilaria exposed to DMSO alone served as controls. An assessment was conducted at 72 hours to determine survival of the microfilaria.

Row | Compound | minimal effective concentration
1 | CN(CC1CN(S(C)(=O)=O)CCO1)c1cc(N2CCC(F)(F)C3(CCCCC3)C2)nc(C(F)(F)F)n1 (stereo not drawn) [Compound 23, 6-(5,5-difluoro-2-azaspiro[5.5]undecan-2-yl)-N-methyl-N-((4-(methylsulfonyl)morpholin-2-yl)methyl)-2-(trifluoromethyl)pyrimidin-4-amine] | < 10000 µM
2 | CN(CC1CN(S(C)(=O)=O)CCC1(F)F)c1cc(N2CCCC3(CCCCC3)C2)nc(C(F)(F)F)n1 (stereo not drawn) [Compound 41, N-((4,4-difluoro-1-(methylsulfonyl)piperidin-3-yl)methyl)-N-methyl-6-(2-azaspiro[5.5]undecan-2-yl)-2-(trifluoromethyl)pyrimidin-4-amine] | < 30000 µM
3 | CN(CC1CCCN(S(C)(=O)=O)C1)c1cc(N2CCCC3(CCCCC3)C2)nc(C(F)(F)F)n1 (stereo not drawn) [Compound 14, N-methyl-N-((1-(methylsulfonyl)piperidin-3-yl)methyl)-6-(2-azaspiro[5.5]undecan-2-yl)-2-(trifluoromethyl)pyrimidin-4-amine] | > 100000 µM
4 | CCS(=O)(=O)N1CCOC(CN(C)c2cc(N3CCOC4(CCCCC4)C3)nc(C(F)(F)F)n2)C1 (stereo not drawn) [Compound 33, N-((4-(ethylsulfonyl)morpholin-2-yl)methyl)-N-methyl-6-(1-oxa-4-azaspiro[5.5]undecan-4-yl)-2-(trifluoromethyl)pyrimidin-4-amine] | < 10000 µM
5 | CN(CC1CN(S(C)(=O)=O)CCC1(F)F)c1cc(N2CCC(F)(F)C3(CCCCC3)C2)nc(C(F)(F)F)n1 (stereo not drawn) [Compound 22, N-((4,4-difluoro-1-(methylsulfonyl)piperidin-3-yl)methyl)-6-(5,5-difluoro-2-azaspiro[5.5]undecan-2-yl)-N-methyl-2-(trifluoromethyl)pyrimidin-4-amine] | > 100000 µM
6 | CN(CC1CN(S(C)(=O)=O)CCO1)c1cc(N2CCOC3(CCCCC3)C2)nc(C(F)(F)F)n1 (racemic) [Compound 4, (R) and (S)-N-methyl-N-((4-(methylsulfonyl)morpholin-2-yl)methyl)-6-(1-oxa-4-azaspiro[5.5]undecan-4-yl)-2-(trifluoromethyl)pyrimidin-4-amine] | < 30000 µM
7 | CN(CC1CN(S(C)(=O)=O)CCS1(=O)=O)c1cc(N2CCS(=O)(=O)C3(CCCCC3)C2)nc(C(F)(F)F)n1 (stereo not drawn) [Compound 29, 4-(6-(methyl((4-(methylsulfonyl)-1,1-dioxidothiomorpholin-2-yl)methyl)amino)-2-(trifluoromethyl)pyrimidin-4-yl)-1-thia-4-azaspiro[5.5]undecane 1,1-dioxide] | < 30000 µM
8 | CN(CC1CN(S(C)(=O)=O)CCO1)c1cc(N2CCOC3(CCCC3)C2)nc(C(F)(F)F)n1 (stereo not drawn) [Compound 16, N-methyl-N-((4-(methylsulfonyl)morpholin-2-yl)methyl)-6-(6-oxa-9-azaspiro[4.5]decan-9-yl)-2-(trifluoromethyl)pyrimidin-4-amine] | < 30000 µM
9 | CN(c1cc(N2CCCC3(CCCCC3)C2)nc(C(F)(F)F)n1)C1CC2(CC(NS(C)(=O)=O)C2)C1 (stereo not drawn) [Compound 7, N-(6-((6-(2-azaspiro[5.5]undecan-2-yl)-2-(trifluoromethyl)pyrimidin-4-yl)(methyl)amino)spiro[3.3]heptan-2-yl)methanesulfonamide] | > 100000 µM
10 | CN(CC1CN(S(C)(=O)=O)CCO1)c1cc(N2CCS(=O)(=O)C3(CCCCC3)C2)nc(C(F)(F)F)n1 (stereo not drawn) [Compound 27, 4-(6-(methyl((4-(methylsulfonyl)morpholin-2-yl)methyl)amino)-2-(trifluoromethyl)pyrimidin-4-yl)-1-thia-4-azaspiro[5.5]undecane 1,1-dioxide] | < 30000 µM
11 | CN(CC1CN(S(C)(=O)=O)CCS1)c1cc(N2CCOC3(CCCCC3)C2)nc(C(F)(F)F)n1 (stereo not drawn) [Compound 26, N-methyl-N-((4-(methylsulfonyl)thiomorpholin-2-yl)methyl)-6-(1-oxa-4-azaspiro[5.5]undecan-4-yl)-2-(trifluoromethyl)pyrimidin-4-amine] | < 30000 µM
12 | CS(=O)(=O)N1CCOC(CN(Cc2ccccc2)c2cc(N3CCCC4(CCCCC4)C3)nc(C(F)(F)F)n2)C1 (stereo not drawn) [Compound 37, N-benzyl-N-((4-(methylsulfonyl)morpholin-2-yl)methyl)-6-(2-azaspiro[5.5]undecan-2-yl)-2-(trifluoromethyl)pyrimidin-4-amine] | > 100000 µM
13 | CN(CC1CN(S(C)(=O)=O)CCS1(=O)=O)c1cc(N2CCOC3(CCCCC3)C2)nc(C(F)(F)F)n1 (stereo not drawn) [Compound 25, 2-(((6-(1-oxa-4-azaspiro[5.5]undecan-4-yl)-2-(trifluoromethyl)pyrimidin-4-yl)(methyl)amino)methyl)-4-(methylsulfonyl)thiomorpholine 1,1-dioxide] | > 100000 µM
14 | CN(CCC1CN(S(C)(=O)=O)CCO1)c1cc(N2CCCC3(CCCCC3)C2)nc(C(F)(F)F)n1 (stereo not drawn) [Compound 44, N-methyl-N-(2-(4-(methylsulfonyl)morpholin-2-yl)ethyl)-6-(2-azaspiro[5.5]undecan-2-yl)-2-(trifluoromethyl)pyrimidin-4-amine] | > 100000 µM
15 | CN(CC1CN(S(C)(=O)=O)CCO1)c1cc(N2CCCC3(CCC(F)(F)CC3)C2)nc(C(F)(F)F)n1 (stereo not drawn) [Compound 40, 6-(9,9-difluoro-2-azaspiro[5.5]undecan-2-yl)-N-methyl-N-((4-(methylsulfonyl)morpholin-2-yl)methyl)-2-(trifluoromethyl)pyrimidin-4-amine] | < 30000 µM
16 | CN(CC1CN(S(C)(=O)=O)CCC1(F)F)c1cc(N2CCOC3(CCCCC3)C2)nc(C(F)(F)F)n1 (stereo not drawn) [Compound 24, N-((4,4-difluoro-1-(methylsulfonyl)piperidin-3-yl)methyl)-N-methyl-6-(1-oxa-4-azaspiro[5.5]undecan-4-yl)-2-(trifluoromethyl)pyrimidin-4-amine] | < 10000 µM
17 | CCN(CC1CN(S(C)(=O)=O)CCO1)c1cc(N2CCCC3(CCCCC3)C2)nc(C(F)(F)F)n1 (stereo not drawn) [Compound 38, N-ethyl-N-((4-(methylsulfonyl)morpholin-2-yl)methyl)-6-(2-azaspiro[5.5]undecan-2-yl)-2-(trifluoromethyl)pyrimidin-4-amine] | < 30000 µM
18 | CN(CCOc1ccccc1)c1cc(N2CCCC3(CCCCC3)C2)nc(C(F)(F)F)n1 [Compound 8, N-methyl-N-(2-phenoxyethyl)-6-(2-azaspiro[5.5]undecan-2-yl)-2-(trifluoromethyl)pyrimidin-4-amine] | > 100000 µM
19 | CN(CC1CCN(S(C)(=O)=O)C1)c1cc(N2CCCC3(CCCCC3)C2)nc(C(F)(F)F)n1 (stereo not drawn) [Compound 9, N-methyl-N-((1-(methylsulfonyl)pyrrolidin-3-yl)methyl)-6-(2-azaspiro[5.5]undecan-2-yl)-2-(trifluoromethyl)pyrimidin-4-amine] | < 30000 µM
20 | CN(CC1CN(S(=O)(=O)C2CC2)CCO1)c1cc(N2CCOC3(CCCCC3)C2)nc(C(F)(F)F)n1 (stereo not drawn) [Compound 32, N-((4-(cyclopropylsulfonyl)morpholin-2-yl)methyl)-N-methyl-6-(1-oxa-4-azaspiro[5.5]undecan-4-yl)-2-(trifluoromethyl)pyrimidin-4-amine] | < 10000 µM
21 | CN(CC1CN(S(C)(=O)=O)CCS1)c1cc(N2CCCC3(CCCCC3)C2)nc(C(F)(F)F)n1 (stereo not drawn) [Compound 43, N-methyl-N-((4-(methylsulfonyl)thiomorpholin-2-yl)methyl)-6-(2-azaspiro[5.5]undecan-2-yl)-2-(trifluoromethyl)pyrimidin-4-amine] | > 100000 µM
22 | CS(=O)(=O)N1CCOC2CN(c3cc(N4CCOC5(CCCCC5)C4)nc(C(F)(F)F)n3)CCC21 (stereo not drawn) [Compound 34, 4-(6-(1-(methylsulfonyl)octahydro-6H-pyrido[3,4-b][1,4]oxazin-6-yl)-2-(trifluoromethyl)pyrimidin-4-yl)-1-oxa-4-azaspiro[5.5]undecane] | < 30000 µM
23 | CN(C)S(=O)(=O)N1CC2(CN(c3cc(N4CCCC5(CCCCC5)C4)nc(C(F)(F)F)n3)C2)C1 [Compound 10, 6-(6-(2-azaspiro[5.5]undecan-2-yl)-2-(trifluoromethyl)pyrimidin-4-yl)-N,N-dimethyl-2,6-diazaspiro[3.3]heptane-2-sulfonamide] | > 100000 µM
24 | CN(Cc1ccc(S(=O)(=O)N(C)C)cc1)c1cc(N2CCCC3(CCCCC3)C2)nc(C(F)(F)F)n1 [Compound 5, 4-(((6-(2-azaspiro[5.5]undecan-2-yl)-2-(trifluoromethyl)pyrimidin-4-yl)(methyl)amino)methyl)-N,N-dimethylbenzenesulfonamide] | > 100000 µM
25 | CN(CCN1CCCS1(=O)=O)c1cc(N2CCCC3(CCCCC3)C2)nc(C(F)(F)F)n1 [Compound 11, 2-(2-((6-(2-azaspiro[5.5]undecan-2-yl)-2-(trifluoromethyl)pyrimidin-4-yl)(methyl)amino)ethyl)isothiazolidine 1,1-dioxide] | < 30000 µM
26 | CN(CC1CN(S(C)(=O)=O)CCO1)c1cc(N2CCOC3(CCC(F)(F)CC3)C2)nc(C(F)(F)F)n1 (stereo not drawn) [Compound 21, 6-(9,9-difluoro-1-oxa-4-azaspiro[5.5]undecan-4-yl)-N-methyl-N-((4-(methylsulfonyl)morpholin-2-yl)methyl)-2-(trifluoromethyl)pyrimidin-4-amine] | < 10000 µM
27 | CN(CC1CN(S(C)(=O)=O)CCCO1)c1cc(N2CCOC3(CCCCC3)C2)nc(C(F)(F)F)n1 (stereo not drawn) [Compound 31, N-methyl-N-((4-(methylsulfonyl)-1,4-oxazepan-2-yl)methyl)-6-(1-oxa-4-azaspiro[5.5]undecan-4-yl)-2-(trifluoromethyl)pyrimidin-4-amine] | < 30000 µM
